From US10519145B2, “Pyrazole-oxazolidinone compound for anti-hepatitis B virus” (Shanghai Zhimeng Biopharma Co., Ltd., priority 2016, dated 2019)

System: HBV (HepG2.2.15 cells)
Assay: Anti-HBV activity experiment in vitro (HepG2.2.15, HBV DNA in supernatant, qPCR)
Format: cell-based
Settings: Hepatitis B virus, HBV DNA in supernatant by qPCR, eighth day
Protocol: Compound Dilution: initial concentrations of all compounds used in the anti-HBV activity experiments in vitro were 1 μM, 3-fold diluted into 8 concentrations; initial concentrations of all compounds used in the cytotoxicity assay were 100 μM, 3-fold diluted into 8 concentrations; and the mother liquor of the compound was diluted with DMSO.
Anti-HBV Activity Experiment In Vitro: HepG2.2.15 cells (4×10^4 cells/well) were seeded in 96-well plates and cultured overnight at 37° C. in 5% CO2. The next day, fresh cultures containing compounds in different concentrations were added into the culture wells. On the fifth day, the old culture medium in the culture wells was aspirated and removed. Fresh medium containing compounds in different concentrations was added. On the eighth day, supernatants in the culture wells were collected and used to extract HBV DNA in the supernatant. qPCR assay was used to detect HBV DNA content in the HepG2.2.15 supernatant.
The data analysis and the percentage of inhibition calculation: the percentage of inhibition was calculated by using the following formula: Inhibition %=[(HBV amount in DMSO control−HBV amount in sample)/HBV amount in DMSO control]×100%.

First: O=C1COC(c2cn(-c3ccc(Br)cc3)nc2-c2ccc(F)cc2)N1CCc1cc2nc[nH]c2cc1F (centres unmarked) [example 7, 2-(1-(4-bromophenyl)-3-(4-fluorophenyl)1H-pyrazol-4-yl)-3-(2-(5-fluoro-1H-benzo[d]imidazol-6-yl)ethyl)oxazoline-4-one]
Second: O=C1COC(c2cn(-c3ccc(Br)cc3)nc2-c2ccc(F)cc2)N1CCc1cc2nn[nH]c2cc1F (centres unmarked) [example 9, 3-(2-(5-fluoro-1H-benzo[d][1,2,3]triazol-6-yl)ethyl)-2-(1-(4-bromophenyl)-3-(4-fluorophenyl)-1H-pyrazol-4-yl)oxazoline-4-one]
The EC50 of the first is 3.5-fold lower: 67.5 nM for the first, 234 nM for the second.

First: O=C1COC(c2cn(-c3ccc(Br)cc3)nc2-c2ccc(F)cc2)N1CCc1ccc2[nH]c(=O)oc2c1 (centres unmarked) [example 16, 6-(2-{2-[1-(4-bromo-phenyl)-3-(4-fluoro-phenyl)-1-hydro-pyrazol-4-yl]-4-carbonyl-oxazoline-3-yl}-ethyl)-3-hydro-2-carbonyl-benzoxazole]
Second: O=C1COC(c2cn(-c3ccc(Br)cc3)nc2-c2ccc(F)cc2)N1CCc1ccc2oc(=O)[nH]c2c1 (centres unmarked) [example 17]
The EC50 of the first is 1.9-fold lower: 80.3 nM for the first, 150 nM for the second. The first is the more potent here.

Compared with O=C1COC(c2cn(-c3ccc(Br)cc3)nc2-c2ccco2)N1CCc1ccc2[nH]c(=O)[nH]c2c1 (centres unmarked) [example 22, 2-(1-(4-bromophenyl)-3-(furan-2-yl)-1H-pyrazol-4-yl)-3-(2-(2-oxo-2,3-dihydro-1H-benzo[d]imidazol-5-yl)ethyl)oxazolidin-4-one], O=C1CO[C@@H](c2cn(-c3ccc(Br)cc3)nc2-c2ccoc2)N1CCc1ccc2[nH]c(=O)[nH]c2c1 [example 21 S isomer, (S)-2-(1-(4-bromophenyl)-3-(furan-3-yl)-1H-pyrazol-4-yl)-3-(2-(2-oxo-2,3-dihydro-1H-benzo[d]imidazol-5-yl)ethyl)oxazolidin-4-one] is higher in EC50: 85.3 nM for the first, over 1000 nM for the second.

Going from N=c1[nH]c2ccc(CCN3C(=O)COC3c3cn(-c4ccc(Br)cc4)nc3-c3ccc(F)cc3)cc2[nH]1 (centres unmarked) [example 4, 3-(2-(2-amino-1H-benzo[d]imidazol-6-yl)ethyl)-2-(1-(4-bromophenyl)-3-(4-fluorophenyl)-1H-pyrazol-4-yl)oxazoline-4-one] to O=C1COC(c2cn(-c3ccc(Br)cc3)nc2-c2ccc(F)cc2)N1CCc1ccc2[nH]c(=S)[nH]c2c1 (centres unmarked) [example 5, 2-(1-(4-bromophenyl)-3-(4-fluorophenyl)-1H-pyrazol-4-yl)-3-(2-(2,3-dihydro-2-thio-1H-benzo[d]imidazol-5-yl)ethyl)oxazoline-4-one], the EC50 falls from over 1000 nM to 45.7 nM.

O=C1COC(c2cn(-c3ccc(Br)cc3)nc2-c2ccc(F)cc2)N1CCc1ccc2c(c1)C(F)(F)C(=O)N2 (centres unmarked) [example 14] and O=C1Cc2cc(CCN3C(=O)CO[C@H]3c3cn(-c4ccc(Br)cc4)nc3-c3ccc(F)cc3)ccc2N1 [example 13 S isomer] cannot be ordered by EC50: over 1000 nM for the first, over 1000 nM for the second.

First: O=C1CO[C@H](c2cn(-c3ccc(Br)cc3)nc2-c2ccc(F)cc2)N1CCc1cc2[nH]c(=O)[nH]c2cc1F [example 8 R isomer, (R)-2-(1-(4-bromophenyl)-3-(4-fluorophenyl)1H-pyrazol-4-yl)-3-(2-(6-fluoro-2-carbonyl-2,3-dihydro-1H-benzo[d]imidazol-5-yl)ethyl)oxazoline-4-one]
Second: O=C1COC(c2cn(-c3ccc(Br)cc3)nc2-c2ccc(F)cc2)N1CCc1cc2[nH]c(=O)[nH]c2cc1F (racemic) [example 8 racemate, 2-(1-(4-bromophenyl)-3-(4-fluorophenyl)11/-pyrazol-4-yl)-3-(2-(6-fluoro-2-carbonyl-2,3-dihydro-1H-benzo[d]imidazol-5-yl)ethyl)oxazoline-4-one]
The EC50 of the first is 2.3-fold lower: 15.5 nM for the first, 35.5 nM for the second. The first is the more potent here.

Compared with Nc1ccc(CCN2C(=O)COC2c2cn(-c3ccc(Br)cc3)nc2-c2ccc(F)cc2)cc1 (centres unmarked) [example 1 intermediate], O=C1COC(c2cn(-c3ccc(Br)cc3)nc2-c2ccc(F)cc2)N1CCc1ccc2[nH]cnc2c1 (centres unmarked) [example 1, 3-(2-(1H-benzo[d]imidazol-5-yl)ethyl)-2-(1-(4-bromophenyl)-3-(4-fluorophenyl)-1 H-pyrazol-4-yl)oxazoline-4-one] is 4.3-fold higher in EC50: 11.8 nM for the first, 50.3 nM for the second. The first is the more potent here.

Compared with O=C1COC(c2cn(-c3ccc(Br)cc3)nc2-c2ccc(F)cc2)N1CCc1c(F)cc2[nH]nnc2c1F (centres unmarked) [example 12, 2-(1-(4-bromophcnyl)-3-(4-fluorophenyl)-1H-pyrazol-4-yl)-3-(2-(5,7-difluoro-1H hydrogen-benzor[d][1,2,3]triazol-6-yl)ethyl)oxazoline-4-one], O=C1COC(c2cn(-c3ccc(Br)cc3)nc2-c2ccc(F)cc2)N1CCc1c(F)cc2[nH]cnc2c1F (centres unmarked) [example 10, 2-(1-(4-bromophenyl)-3-(4-fluorophenyl)1H-pyrazol-4-yl)-3-(2-(5,7-difluoro-1H-benzo[d]imidazol-6-yl)ethyl)oxazoline-4-one] is 1.7-fold lower in EC50: 223 nM for the first, 134 nM for the second. The second is the more potent here.

Compared with O=C1COC(c2cn(-c3ccc(Br)cc3)nc2-c2ccoc2)N1CCc1ccc2[nH]c(=O)[nH]c2c1 (racemic) [example 21 racemate, 2-(1-(4-bromophenyl)-3-(furan-3-yl)-1H-pyrazol-4-yl)-3-(2-(2-oxo-2,3-dihydro-1H-benzo[d]imidazol-5-yl)ethyl)oxazolidin-4-one], O=C1CO[C@H](c2cn(-c3ccc(Br)cc3)nc2-c2ccoc2)N1CCc1ccc2[nH]c(=O)[nH]c2c1 [example 21 R isomer, (R)-2-(1-(4-bromophenyl)-3-(furan-3-yl)-1H-pyrazol-4-yl)-3-(2-(2-oxo-2,3-dihydro-1H-benzo[d]imidazol-5-yl)ethyl)oxazolidin-4-one] is 2.8-fold lower in EC50: 30.6 nM for the first, 11 nM for the second.

First: O=C1COC(c2cn(-c3ccc(Br)cc3)nc2-c2ccsc2)N1CCc1ccc2[nH]c(=O)[nH]c2c1 (centres unmarked) [example 20, 2-(1-(4-bromophenyl)-3-(thiophene-3-yl)-1H-pyrazol-4-yl)-3-(2-(2-oxo-2,3-dihydro-1H-benzo[d]imidazol-5-yl)ethyl)oxazolidin-4-one]
Second: O=C1CO[C@@H](c2cn(-c3ccc(Br)cc3)nc2-c2ccc(F)cc2)N1CCc1ccc2[nH]c(=O)[nH]c2c1 [example 3 S isomer, (S)-3-(2-(2-oxo-2,3-dihydro-1H-benzo[d]imidazol-5-yl)ethyl)-2-(1-(4-bromophenyl)-3-(4-fluorophenyl)-1H-pyrazol-4-yl)-oxazolidin-4-one]
The EC50 of the first is lower: 20.9 nM for the first, over 1000 nM for the second.

Going from O=C1COC(c2cn(-c3ccc(Br)cc3)nc2-c2ccc(F)cc2)N1CCc1c(F)cc2[nH]c(=O)[nH]c2c1F (centres unmarked) [example 11, 2-(1-(4-bromophenyl)-3-(4-fluorophenyl)1H-pyrazol-4-yl)-3-(2-(4,6-difluoro-2-carbonyl-2,3-dihydro-1H-benzo[d]imidazol-5-yl)ethyl)oxazoline-4-one] to O=C1CO[C@@H](c2cn(-c3ccc(Br)cc3)nc2-c2ccc(F)cc2)N1CCc1cc2[nH]c(=O)[nH]c2cc1F [example 8 S isomer, (S)-2-(1-(4-bromophenyl)-3-(4-fluorophenyl)1H-pyrazol-4-yl)-3-(2-(6-fluoro-2-carbonyl-2,3-dihydro-1H-benzo[d]imidazol-5-yl)ethyl)oxazoline-4-one], the EC50 rises from 101 nM to over 1000 nM.

Compared with O=C1CO[C@@H](c2cn(-c3ccc(F)cc3)nc2-c2ccc(F)cc2)N1CCc1ccc2[nH]c(=O)[nH]c2c1 [example 15 S isomer, (S)-3-(2-(2-oxo-2,3-dihydro-1H-benzo[d]imidazol-5-yl)ethyl)-2-(1-(4-fluorophenyl)-3-(4-fluorophenyl)-1H-pyrazol-4-yl)-oxazolidin-4-one], O=C1CO[C@H](c2cn(-c3ccc(F)cc3)nc2-c2ccc(F)cc2)N1CCc1ccc2[nH]c(=O)[nH]c2c1 [example 15 R isomer, (R)-3-(2-(2-oxo-2,3-dihydro-1H-benzo[d]imidazol-5-yl)ethyl)-2-(1-(4-fluorophenyl)-3-(4-fluorophenyl)-1H-pyrazol-4-yl)-oxazolidin-4-one] is lower in EC50: over 1000 nM for the first, 44.5 nM for the second. The second is the more potent here.

Going from O=C1COC(c2cn(-c3ccc(Br)cc3)nc2-c2ccc(F)cc2)N1CCc1ccc2sc(=O)[nH]c2c1 (centres unmarked) [example 19, 2-(1-(4-bromophenyl)-3-(4-fluorophenyl)-1H-pyrazol-4-yl)-3-(2-(2-oxo-2,3-dihydrobenzo[d]thiazol-5-yl)ethyl)oxazoline-4-one] to O=C1COC(c2cn(-c3ccc(Br)cc3)nc2-c2ccc(F)cc2)N1CCc1ccc2[nH]c(=O)sc2c1 (centres unmarked) [example 18, 2-(1-(4-bromophenyl)-3-(4-fluorophenyl)-1H-pyrazol-4-yl)-3-(2-(2-carbonyl-2,3-dihydrobenzo[d]thiazol-6-yl)ethyl)-4-carbonyl-oxazoline], the EC50 falls from 162 nM to 60.4 nM (2.7-fold).

First: O=C1COC(c2cn(-c3ccc(Br)cc3)nc2-c2ccc(F)cc2)N1CCc1ccc2[nH]nnc2c1 (centres unmarked) [example 2, 3-(2-(1H-benzo[d][1,2,3]triazol-5-yl)ethyl)-2-(1-(4-bromophenyl)-3-(4-fluoropheny 1)-1H-pyrazol-4-yl)oxazoline-4-one]
Second: O=C1Cc2cc(CCN3C(=O)CO[C@@H]3c3cn(-c4ccc(Br)cc4)nc3-c3ccc(F)cc3)ccc2N1 [example 13 R isomer]
The EC50 of the first is 4.8-fold higher: 68.8 nM for the first, 14.4 nM for the second.

COC(=O)Nc1nc2cc(CCN3C(=O)COC3c3cn(-c4ccc(Br)cc4)nc3-c3ccc(F)cc3)ccc2[nH]1 (centres unmarked) [example 23, Methyl (5-(2-(2-(I -(4-bromophenyl)-3-(4-fluorophenyl)-1H-pyrazol-4-yl)oxazoline-4-one-3-yl)ethyl)-1H-benzo[d]imidazol-2-yl)carbamate] gave an EC50 of 127 nM.
